Active and inactive are the calls of the source.
What was measured:
[1] = biological target: Cytochrome P450 2C9 (Homo sapiens, UniProt P11712); details: Potency
[2] = biological target: Cytochrome P450 2C19 (Homo sapiens, UniProt P33261); experiment: qHTS Assay for Inhibitors and Substrates of Cytochrome P450 2C19. [Related pubchem assays: 410 ]; type: ADME; details: read-out: Potency
[3] = biological target: Cytochrome P450 3A4 (Homo sapiens, UniProt P08684); details: Potency;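 also: confirmatory qHTS run detecting inhibitors and substrates of CYP3A4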
Sequence of Cytochrome P450 3A4 (P08684 whole entry): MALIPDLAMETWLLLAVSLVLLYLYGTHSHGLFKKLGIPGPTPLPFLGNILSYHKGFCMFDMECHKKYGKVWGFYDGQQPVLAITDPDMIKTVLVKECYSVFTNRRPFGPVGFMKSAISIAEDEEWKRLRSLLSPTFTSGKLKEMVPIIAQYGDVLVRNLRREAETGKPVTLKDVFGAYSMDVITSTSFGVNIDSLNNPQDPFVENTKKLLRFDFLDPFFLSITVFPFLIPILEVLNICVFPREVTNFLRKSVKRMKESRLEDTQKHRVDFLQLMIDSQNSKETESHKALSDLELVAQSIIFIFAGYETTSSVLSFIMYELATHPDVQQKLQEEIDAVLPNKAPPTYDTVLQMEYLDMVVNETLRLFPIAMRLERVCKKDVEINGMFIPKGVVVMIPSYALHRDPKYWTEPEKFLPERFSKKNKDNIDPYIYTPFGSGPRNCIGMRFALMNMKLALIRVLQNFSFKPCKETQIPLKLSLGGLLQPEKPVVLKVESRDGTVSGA

[4] = biological target: DNA dC->dU-editing enzyme APOBEC-3A (Homo sapiens, UniProt P31941); experiment: A3A deaminase inhibition for selectivity – biochemical, dose response (AID 504722); type: functional
[5] = biological target: DNA dC->dU-editing enzyme APOBEC-3G (Homo sapiens, UniProt Q9HC16); experiment: Dose Response confirmation of small molecule APOBEC3G DNA Deaminase Inhibitors via a fluorescence-based single-stranded DNA deaminase assay. [Related pubchem assays (depositor defined):AID493012, AID493028]; type: functional
[6] = biological target: Melanin-concentrating hormone receptor 1 (Homo sapiens, UniProt Q99705); experiment: Fluorescence-based counterscreen for antagonists of the G-protein coupled receptor 7 (GPR7): cell-based high throughput dose response assay to identify antagonists of the melanin-concentrating hormone receptor 1 (MCHR1).; type: functional
[7] = system: HeLa; experiment: viability loss in HeLa cells – cell-based, 24 h, cherry-picked samples, cytotoxicity control, dose response (AID 504726); type: functional; details: Homo sapiens
[8] = A cytotoxicity screen of small molecule inhibitors of the PhoP region in Salmonella typhi identified in the primary screen. [Related pubchem assays: 1850, 1864, 1985 ]; type: functional
[9] = biological target: Neurotensin receptor type 1 (Homo sapiens, UniProt P30989); type: functional;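 also: Image-based confirmatory dose-response assay measuring agonist activity at NTR1; NTR1-expressing U2OS osteosarcoma cells imaged for beta-arrestin GFP spot formation; agonist potency where compounds increase beta-arrestin recruitment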
Sequence of Neurotensin receptor type 1 (P30989 whole entry, the tested form may be a part): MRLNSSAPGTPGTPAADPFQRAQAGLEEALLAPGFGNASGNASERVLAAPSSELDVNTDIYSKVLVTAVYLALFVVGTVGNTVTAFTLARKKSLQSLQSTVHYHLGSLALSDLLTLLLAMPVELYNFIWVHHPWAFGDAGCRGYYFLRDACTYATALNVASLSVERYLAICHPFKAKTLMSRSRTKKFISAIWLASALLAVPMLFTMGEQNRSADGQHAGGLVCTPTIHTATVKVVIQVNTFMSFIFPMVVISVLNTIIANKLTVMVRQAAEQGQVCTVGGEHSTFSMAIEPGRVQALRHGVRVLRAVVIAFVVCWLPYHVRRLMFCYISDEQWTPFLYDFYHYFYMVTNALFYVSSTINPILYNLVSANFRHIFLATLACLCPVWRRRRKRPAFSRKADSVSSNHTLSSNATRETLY

[10] = system: CHO; experiment: CHO cell viability loss, potency – luminescence, cytotoxicity control for TLR9-MyD88 binding inhibitor project, dose response (AID 588339); type: functional, cell-based, hamster; details: Cricetulus griseus;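 also: CHO cells stably coexpressing TLR9 and MyD88 fusions from primary screen; compound exposure lasted 48 hours before viability readout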
[11] = biological target: Beta Lactamase (Pseudomonas aeruginosa, UniProt Q932Y6); experiment: BLA reporter interference, concentration series – BLA reporter cells, FRET fluorescence, artefact control for TLR9-MyD88 binding inhibitor project, dose response (AID 588341); type: cell-based;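 also: cell based assay in CHO-K1 cells stably expressing beta-lactamase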
[12] = system: INS1; experiment: INS-1E survival protection against cytokine death – cell-based, luminescence, retest, dose response (AID 449756); type: functional; details: Rattus norvegicus;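 also: cell death triggered by IL-1 beta plus TNF-alpha plus IFN-gamma mixture; protective hits raise ATP signal compared with cytokine alone wells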
[13] = cytotoxicity toward MDA-MB-231 breast cancer cells – cell-based, CellTiter-Glo luminescence, cherry-pick, cytotoxicity control for RAD54 inhibitor project, dose response (AID 651692); type: functional
[14] = biological target: T1, DNA repair and recombination protein RAD54-like (Homo sapiens, UniProt Q92698); experiment: RAD54 Holliday junction migration blockers – biochemical, fluorescence, cherry-picked samples, dose series, confirmation (AID 651657); type: functional
T1 sequence (Q92698 whole entry): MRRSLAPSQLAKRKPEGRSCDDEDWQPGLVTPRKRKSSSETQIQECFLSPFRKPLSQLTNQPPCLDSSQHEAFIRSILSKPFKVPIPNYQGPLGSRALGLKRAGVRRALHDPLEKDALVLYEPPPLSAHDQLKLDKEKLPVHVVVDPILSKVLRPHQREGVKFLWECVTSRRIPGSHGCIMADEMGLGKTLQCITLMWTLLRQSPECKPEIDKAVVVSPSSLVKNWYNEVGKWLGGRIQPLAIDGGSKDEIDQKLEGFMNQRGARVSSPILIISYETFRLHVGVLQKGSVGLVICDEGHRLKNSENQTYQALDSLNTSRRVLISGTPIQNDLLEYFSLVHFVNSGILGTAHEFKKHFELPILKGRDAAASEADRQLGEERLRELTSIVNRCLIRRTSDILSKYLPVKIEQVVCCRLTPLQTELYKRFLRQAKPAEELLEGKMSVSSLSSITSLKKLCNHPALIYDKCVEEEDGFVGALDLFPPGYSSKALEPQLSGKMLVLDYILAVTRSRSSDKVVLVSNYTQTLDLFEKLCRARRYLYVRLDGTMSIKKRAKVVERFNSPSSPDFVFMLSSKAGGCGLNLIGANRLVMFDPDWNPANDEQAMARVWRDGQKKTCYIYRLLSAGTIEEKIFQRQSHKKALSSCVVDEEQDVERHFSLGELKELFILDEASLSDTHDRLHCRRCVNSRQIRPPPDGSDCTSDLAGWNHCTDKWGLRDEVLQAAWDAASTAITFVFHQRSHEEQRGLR

[15] = biological target: SWI/SNF-related matrix-associated actin-dependent regulator of chromatin subfamily A member 2 (Homo sapiens, UniProt P51531); experiment: Luminescence-based cell-based high throughput dose response assay to identify activators of the function of SWI/SNF related, matrix associated, actin dependent regulator of chromatin, subfamily a, member 2 (SMARCA2, BRM).; type: functional
[16] = Counterscreen for activators of the function of SWI/SNF related, matrix associated, actin dependent regulator of chromatin, subfamily a, member 2 (SMARCA2, BRM): Luminescence-based cell-based high throughput dose response assay to identify non-selective compounds using the VP16 reporter assay.; type: functional
[17] = biological target: Paired box protein Pax-8 (Homo sapiens, UniProt Q06710); experiment: PAX8 transcriptional activity inhibition in RMG-I – RMG-I cells, luciferase, cherry-pick, dose response (AID 687027); type: functional, cell-based;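 also: luciferase reporter driven by Pax8 target thyroperoxidase promoter measured by SteadyGlo luminescence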
[18] = general cell-killing toxicity readout – plate reader, dry powder samples, cytotoxicity control for PAX8 inhibitor project, dose response (AID 743021); type: functional, cell-based
[19] = biological target: ORF 73 (Human herpesvirus 8, UniProt O40947); experiment: KSHV LANA DNA-binding disruption – biochemical, fluorescence polarization, cherry-picked samples, dose response (AID 504725); design: species or system Human gammaherpesvirus 8;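 also: fluorescence polarization of a labeled DNA duplex reporting LANA DNA binding; potency is for inhibitors that block LANA binding to the DNA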
[20] = biological target: T2, Voltage-gated N-type calcium channel alpha-1B subunit/Amyloid beta A4 precursor protein-binding family A member 1 (Homo sapiens, UniProt Q00975+Q02410); type: protein assay
T2 sequence (Q00975 whole entry): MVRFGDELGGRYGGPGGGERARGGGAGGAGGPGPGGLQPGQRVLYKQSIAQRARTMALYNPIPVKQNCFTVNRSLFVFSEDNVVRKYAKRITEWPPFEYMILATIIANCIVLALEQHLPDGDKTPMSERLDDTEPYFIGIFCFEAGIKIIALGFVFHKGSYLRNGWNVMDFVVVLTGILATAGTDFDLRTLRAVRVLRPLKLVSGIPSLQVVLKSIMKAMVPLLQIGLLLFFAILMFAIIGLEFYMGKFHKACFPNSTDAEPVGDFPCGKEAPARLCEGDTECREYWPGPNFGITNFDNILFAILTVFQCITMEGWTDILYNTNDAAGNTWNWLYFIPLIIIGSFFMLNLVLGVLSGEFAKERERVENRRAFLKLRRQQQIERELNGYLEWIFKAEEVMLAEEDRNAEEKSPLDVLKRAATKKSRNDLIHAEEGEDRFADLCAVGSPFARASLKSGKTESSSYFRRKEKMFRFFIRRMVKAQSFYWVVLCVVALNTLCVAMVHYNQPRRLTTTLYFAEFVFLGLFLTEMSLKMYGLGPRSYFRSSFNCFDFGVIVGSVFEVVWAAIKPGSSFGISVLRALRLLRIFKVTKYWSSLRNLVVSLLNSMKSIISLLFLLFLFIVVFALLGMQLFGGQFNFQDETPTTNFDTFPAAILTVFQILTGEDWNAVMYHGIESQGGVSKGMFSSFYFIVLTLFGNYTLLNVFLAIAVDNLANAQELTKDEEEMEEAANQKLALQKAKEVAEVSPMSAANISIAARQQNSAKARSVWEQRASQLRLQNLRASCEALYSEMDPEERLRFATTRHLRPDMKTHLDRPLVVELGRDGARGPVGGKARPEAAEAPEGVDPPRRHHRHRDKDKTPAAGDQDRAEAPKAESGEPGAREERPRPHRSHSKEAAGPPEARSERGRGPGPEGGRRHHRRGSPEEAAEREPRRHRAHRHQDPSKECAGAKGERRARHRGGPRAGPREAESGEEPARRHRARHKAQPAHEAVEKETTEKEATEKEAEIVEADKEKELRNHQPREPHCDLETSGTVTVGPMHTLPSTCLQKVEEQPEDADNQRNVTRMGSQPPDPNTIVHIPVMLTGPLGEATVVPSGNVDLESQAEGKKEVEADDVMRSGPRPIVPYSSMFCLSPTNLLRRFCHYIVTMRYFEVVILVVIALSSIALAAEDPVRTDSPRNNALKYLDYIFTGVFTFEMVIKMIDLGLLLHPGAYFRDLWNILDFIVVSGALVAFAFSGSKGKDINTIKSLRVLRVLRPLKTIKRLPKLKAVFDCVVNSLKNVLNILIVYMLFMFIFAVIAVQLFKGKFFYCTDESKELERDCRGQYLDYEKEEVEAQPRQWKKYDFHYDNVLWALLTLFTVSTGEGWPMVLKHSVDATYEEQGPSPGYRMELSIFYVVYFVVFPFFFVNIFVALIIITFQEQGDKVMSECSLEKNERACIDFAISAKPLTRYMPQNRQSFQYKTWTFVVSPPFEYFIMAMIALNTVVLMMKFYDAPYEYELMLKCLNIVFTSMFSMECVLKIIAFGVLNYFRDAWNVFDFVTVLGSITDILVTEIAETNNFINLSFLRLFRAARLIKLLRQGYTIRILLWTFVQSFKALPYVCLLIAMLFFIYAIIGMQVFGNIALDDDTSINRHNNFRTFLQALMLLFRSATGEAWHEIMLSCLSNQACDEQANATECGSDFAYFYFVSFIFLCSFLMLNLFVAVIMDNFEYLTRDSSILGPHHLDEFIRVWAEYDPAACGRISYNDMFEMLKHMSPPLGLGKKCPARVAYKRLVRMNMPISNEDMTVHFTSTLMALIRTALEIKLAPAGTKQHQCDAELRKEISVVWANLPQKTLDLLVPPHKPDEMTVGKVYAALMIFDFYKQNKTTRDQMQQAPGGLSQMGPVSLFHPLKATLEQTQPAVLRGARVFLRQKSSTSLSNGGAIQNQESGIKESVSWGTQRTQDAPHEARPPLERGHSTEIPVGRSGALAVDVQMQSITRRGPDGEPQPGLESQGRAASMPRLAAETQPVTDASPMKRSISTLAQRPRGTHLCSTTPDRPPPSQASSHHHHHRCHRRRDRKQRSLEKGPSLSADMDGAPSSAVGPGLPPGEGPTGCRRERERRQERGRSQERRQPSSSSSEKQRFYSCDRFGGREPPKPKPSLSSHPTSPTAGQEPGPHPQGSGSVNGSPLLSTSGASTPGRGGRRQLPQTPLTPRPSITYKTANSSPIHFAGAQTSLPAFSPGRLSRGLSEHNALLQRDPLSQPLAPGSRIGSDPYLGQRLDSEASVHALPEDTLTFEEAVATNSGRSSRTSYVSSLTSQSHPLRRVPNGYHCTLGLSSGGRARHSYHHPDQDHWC
T2 sequence (Q02410 whole entry): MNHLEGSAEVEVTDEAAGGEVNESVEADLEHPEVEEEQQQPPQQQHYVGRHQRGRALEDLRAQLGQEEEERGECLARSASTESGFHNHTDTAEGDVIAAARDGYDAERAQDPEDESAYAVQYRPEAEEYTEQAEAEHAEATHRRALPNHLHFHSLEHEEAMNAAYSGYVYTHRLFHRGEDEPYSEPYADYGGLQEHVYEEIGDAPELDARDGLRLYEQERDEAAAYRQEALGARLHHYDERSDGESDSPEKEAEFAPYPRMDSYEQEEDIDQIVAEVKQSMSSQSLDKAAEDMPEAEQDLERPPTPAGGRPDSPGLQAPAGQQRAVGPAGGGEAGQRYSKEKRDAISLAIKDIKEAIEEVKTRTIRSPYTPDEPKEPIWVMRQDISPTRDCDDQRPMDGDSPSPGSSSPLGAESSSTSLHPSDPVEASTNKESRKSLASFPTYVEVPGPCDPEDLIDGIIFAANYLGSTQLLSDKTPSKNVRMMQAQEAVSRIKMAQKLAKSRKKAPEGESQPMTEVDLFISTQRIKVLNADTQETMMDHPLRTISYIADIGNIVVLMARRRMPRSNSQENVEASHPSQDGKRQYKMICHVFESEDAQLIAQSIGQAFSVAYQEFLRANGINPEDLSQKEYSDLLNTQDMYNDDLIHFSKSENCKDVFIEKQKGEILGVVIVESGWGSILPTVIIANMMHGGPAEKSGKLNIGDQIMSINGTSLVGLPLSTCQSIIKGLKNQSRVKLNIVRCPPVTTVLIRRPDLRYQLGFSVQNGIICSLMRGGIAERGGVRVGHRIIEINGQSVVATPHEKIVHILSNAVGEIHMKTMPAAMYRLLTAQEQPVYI

[21] = biological target: NS3 (Hepatitis C virus, UniProt A3EZJ3); experiment: PubChem AID 2173; design: species or system Hepacivirus hominis
[22] = biological target: T2, Voltage-gated N-type calcium channel alpha-1B subunit/Amyloid beta A4 precursor protein-binding family A member 1; type: protein assay; remark: listed apart in the source
[23] = antiviral protection against BTV-induced cell death – arbovirus, BSR cells, confirmation (AID 1250); type: functional;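 also: protection from viral cytopathic effect measured as cell viability by ATP luminescence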
[24] = biological target: Induced myeloid leukemia cell differentiation protein Mcl-1 (Homo sapiens, UniProt Q07820); type: functional
Sequence of Induced myeloid leukemia cell differentiation protein Mcl-1 (Q07820 whole entry): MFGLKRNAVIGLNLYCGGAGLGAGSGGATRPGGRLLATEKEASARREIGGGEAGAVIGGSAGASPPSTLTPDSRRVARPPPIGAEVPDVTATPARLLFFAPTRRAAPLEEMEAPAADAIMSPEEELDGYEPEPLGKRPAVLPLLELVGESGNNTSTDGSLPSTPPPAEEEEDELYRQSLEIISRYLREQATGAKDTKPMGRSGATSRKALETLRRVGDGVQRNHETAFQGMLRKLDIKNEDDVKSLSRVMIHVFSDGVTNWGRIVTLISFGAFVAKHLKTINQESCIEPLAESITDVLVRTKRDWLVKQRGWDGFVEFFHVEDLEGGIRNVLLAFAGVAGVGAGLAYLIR

[25] = biological target: Eukaryotic translation initiation factor 4E (Mus musculus, UniProt P63073); experiment: blockers of eIF4G binding by eIF4E – biochemical, TR-FRET, dose response (AID 855); type: functional;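 also: potency for disrupting eIF4E binding to eIF4GI seen as loss of FRET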

Sequence of Cytochrome P450 2C9 (P11712 whole entry): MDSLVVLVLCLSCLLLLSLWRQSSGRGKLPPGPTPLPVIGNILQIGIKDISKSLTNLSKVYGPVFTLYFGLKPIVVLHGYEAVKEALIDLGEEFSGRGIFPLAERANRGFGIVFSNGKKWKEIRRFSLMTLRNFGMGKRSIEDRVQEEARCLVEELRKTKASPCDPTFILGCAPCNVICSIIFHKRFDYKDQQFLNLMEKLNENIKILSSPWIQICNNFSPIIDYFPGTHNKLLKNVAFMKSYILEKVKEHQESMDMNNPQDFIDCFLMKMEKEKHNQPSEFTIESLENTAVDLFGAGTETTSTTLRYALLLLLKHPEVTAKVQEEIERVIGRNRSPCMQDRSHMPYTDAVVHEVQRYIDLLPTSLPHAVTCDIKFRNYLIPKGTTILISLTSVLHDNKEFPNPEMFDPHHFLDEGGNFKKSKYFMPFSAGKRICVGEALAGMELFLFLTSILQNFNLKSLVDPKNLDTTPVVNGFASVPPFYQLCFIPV

For `CC(=O)c1ccc(OCc2ccccc2)c(C)c1O`, the AC50 [1] was 2 µM (inconclusive).

With `COc1ccc(OC2C=CC(C#Cc3ccc(C(C)(C)C)cc3)OC2CO)cc1` (configuration not stated) the AC50 [2] was 2.51 µM (inconclusive), the AC50 [3] was 3.98 µM (inconclusive) and the AC50 [1] was 0.398 µM (inconclusive).

For `Sc1nnc(-c2cccnc2)n1/N=C/C=C/c1ccccc1`, the IC50 [4] was > 100 µM (inactive) and the IC50 [5] was 2.33 µM (active).

For `COc1cccc(CC2(CO)CCCN(Cc3c(C)cc(C)cc3-n3cccn3)C2)c1` (configuration not stated), the IC50 [6] was 12.6 µM (not active).

For `CC(Sc1ncccn1)C(=O)NNC(=O)c1cccc(Cl)c1` (configuration not stated), the AC50 [7] was 46.6 µM (active).

With `O=S(=O)(Nc1ncccn1)c1ccc(NC(=S)Nc2cccc(Cl)c2)cc1` the EC50 [8] was > 50 µM (active).

With `COc1ccc(Cn2cc3c(-c4ccc(F)cc4)nnc-3c3cc(OC)c(OC)cc32)cc1` the EC50 [9] was 5.72 µM (active), the IC50 [10] was 11.9 µM (inactive) and the IC50 [11] was 5.58 µM (active). The AC50 [12] was 6.94 µM (active), the AC50 [13] was 15.3 µM (active) and the AC50 [14] was 7.21 µM (active). The EC50 [15] was > 91.2 µM (inactive), the EC50 [16] was > 91.2 µM (inactive) and the AC50 [17] was 12.9 µM (active). The AC50 [18] was 29.5 µM (active).

In the case of `NC1=NC2(CCCCC2)n2c(nc3ccccc32)N1`, the EC50 [8] is reported as > 50 µM (active).

In the case of `O=c1ccc2cc3c4c(c2o1)CCCN4CCC3`, the AC50 [19] is reported as 12.6 µM (active).

In the case of `Cc1ccc(-n2cccc2/C=C2\C(=N)N3N=C(c4ccco4)SC3=NC2=O)cc1`, the IC50 [20] is reported as 8.99 µM (active), the IC50 [21] is reported as 5.31 µM (active) and the IC50 [22] is reported as > 50 µM (inactive). For the same molecule, the IC50 [23] was 26 µM (active), the IC50 [24] was 1.7 µM (active) and the IC50 [25] was 50 µM (inactive).

Reference: ChEMBL document CHEMBL1201862, “PubChem BioAssay data set” (2004)
